Assay results: US20230024108A1, “ADENOSINE A2A RECEPTOR ANTAGONISTS” (Teon Therapeutics, Inc., priority 2019, published 2023)

Assays:
human A2A AdoR = biological target: T1, human A2A AdoR (Homo sapiens, UniProt P29274); test: Adenosine receptor binding assay, A2A ([3H]-CGS-21680); conditions: membranes of HEK-293 cells expressing human A2A AdoR; read-out: hA2A IC50
T1 construct: purchased PerkinElmer RBHA2AM400UA
In short: (§1)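 Filtration binding on membranes: A2A in HEK-293 with 6 nM [3H]-CGS-21680, Tris pH 7.4, 2 h; A2B in HEK-293 with 8 nM [3H]-DPCPX, HEPES pH 7.0, 1 h; A1 in CHO-K1 with 1 nM [3H]-DPCPX, HEPES pH 7.4, 1 h; room temperature. 8-point dilutions; IC50 converted to Ki (Cheng–Prusoff).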

A1AdoR = biological target: T2, A1AdoR (Homo sapiens, UniProt P30542); test: Adenosine receptor binding assay, A1 ([3H]-DPCPX); conditions: ratio A1 vs A2A binding
T2 construct: purchased PerkinElmer ES-010-M400UA
T2 sequence (P30542 1-326): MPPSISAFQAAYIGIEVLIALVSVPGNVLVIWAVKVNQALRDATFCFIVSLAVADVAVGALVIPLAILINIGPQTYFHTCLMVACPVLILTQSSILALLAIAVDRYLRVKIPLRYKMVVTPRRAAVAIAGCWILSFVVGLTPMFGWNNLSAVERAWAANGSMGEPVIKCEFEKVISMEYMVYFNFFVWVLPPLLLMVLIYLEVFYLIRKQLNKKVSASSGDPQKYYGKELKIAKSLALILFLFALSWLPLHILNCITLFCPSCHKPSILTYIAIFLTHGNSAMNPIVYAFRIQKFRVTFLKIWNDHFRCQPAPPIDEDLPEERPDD
In short: as §1

phospho-CREB (pCREB) = test: Human whole blood phospho-CREB (pCREB) assay / modulation of pCREB in human immune cells; type: cell-based; conditions: agonist (NECA or CGS-21680)-stimulated human blood cells
Protocol: Fresh human blood samples are derived from healthy volunteers and processed in heparin tubes. 67.5 ul of whole blood is aliquoted to each well in a 96-well plate and incubated at 37° C. for 30 min. Testing compounds are diluted with DMSO to make 8-point 3-fold serial dilution and 3.5 ul (20×) is added to each well. Cells are incubated with the compounds at 37° C. for 30 min. NECA (5 uM) is then added to each well and cells are incubated for 30 min at 37° C. Following the stimulation, cells are transferred to a 96-well deep well plates and fixed with 1 ml/well of lyse/fix buffer (1×) (BD Biosciences #558049) with vigorous shake at 37° C. for 10 min. Cells are centrifuged at 600 g for 6 min and washed twice with PBS, followed by addition of 800 ul/well Perm buffer III (BD Biosciences #558050). Cells are then pelleted at 600 g for 6 min, washed with FACS buffer (PBS+0.2% BSA+1 mM EDTA) and stained for 40 min at room temperature in the dark with an antibody cocktail containing PE mouse anti-human CD3 (BD Biosciences #555333, 1 ul/well), FITC mouse anti-human CD4 (BD Biosciences #5555346, 1 ul/well), PerCP-Cy™5.5 mouse anti-human CD8 (BD Biosciences #565310, 1 ul/well) and phospho-CREB (Ser133) (87G3) Rabbit mAb (Alexa Fluor® 647 Conjugate, CST #14001, 0.5 ul/well). Cells are then washed twice with FACS buffer and acquired on a flow cytometer (Sony Cell Sorter SH800). Data were analyzed using FlowJo version 9. The level of CREB phosphorylation from unstimulated cells (Low control: LC) and NECA-stimulated cells (High control: HC) are determined as mean fluorescent intensity (MFI) in stimulated condition/mean fluorescent intensity in unstimulated condition. % Inhibition is calculated as (MFI of HC-MFI of assay well)/(MFI of HC-MFI of LC)×100%. Data are analyzed and IC50s calculated using GraphPad Prism 5 and the model “log(inhibitor) vs. response—Variable slope”.
The A2A receptor is known to mediate CREB phosphorylation.
Venous blood from healthy volunteers, all of whom signed an informed consent approved by the Ethics Committee (FOR—UIC-BV-050-01-01 ICF HBS HD Version 5.0), was obtained via ImmuneHealth (Centre Hospitalier Universitaire Tivoli, La Louviere,
15 Belgium). Peripheral blood cells were treated with A2AR agonists CGS-21680 or NECA (Sigma-Aldrich, Diegem, Belgium), and a serial dilution of compounds disclosed herein (all used stock solutions at 10 mM in DMSO). All dilutions were prepared in RPMI1640 medium (with UltraGlutamine; Lonza, Venders, Belgium), and cells were incubated with compounds in a 37° C. humidified tissue culture incubator with 5% CO2.
After stimulation, cells were fixed and permeabilized, followed by intracellular staining using mouse anti-human pCREB antibodies (Clone J151-21; BD Biosciences) at room temperature. Data were acquired using an LSRFortessa flow cytometer (BD Biosciences) and analyzed using FlowJo software (FlowJo, LLC, Ashland, Oregon).

human A2B AdoR = biological target: T3, human A2B AdoR (Homo sapiens, UniProt P29275); test: Adenosine receptor binding assay, A2B ([3H]-DPCPX); conditions: ratio A2B vs A2A binding
T3 construct: purchased PerkinElmer ES-013-M400UA
T3 sequence (P29275 1-332): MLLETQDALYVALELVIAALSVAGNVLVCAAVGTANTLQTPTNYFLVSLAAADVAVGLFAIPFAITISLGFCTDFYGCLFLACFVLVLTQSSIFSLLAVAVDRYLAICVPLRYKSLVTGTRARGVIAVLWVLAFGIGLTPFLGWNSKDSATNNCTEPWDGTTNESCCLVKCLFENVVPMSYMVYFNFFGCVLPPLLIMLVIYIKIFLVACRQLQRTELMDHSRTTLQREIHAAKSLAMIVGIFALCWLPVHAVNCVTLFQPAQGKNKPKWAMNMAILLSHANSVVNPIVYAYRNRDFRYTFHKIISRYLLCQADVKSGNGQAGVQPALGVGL
Protocol: Membranes prepared from CHO-K1 cells stably expressing Human AiAdoR (ES-010-M400UA), HEK-293 cells stably expressing human A2A AdoR (RBHA2AM400UA), HEK-293 cells stably expressing human A2B AdoR (ES-013-M400UA) and CHO-K1 cells stably expressing Human A3 AdoR (ES-012-M400UA) were purchased from PerkinElmer (Waltham, Mass., USA) and stored at −80° C. until use. Binding assays are performed using the radioligands. The final concentrations are as follows: [3H]-DPCPX (PerkinElmer, NET974001MC) at 1 nM for A1AdoR; [^3H]-CGS-21680 (PerkinElmer, NET1021250UC) at 6 nM for A2AAdoR, [3H]-DPCPX (PerkinElmer, NET974001MC) at 8 nM for A2BAdoR; [^3H]-HEMADO (ARC, Cat: ART1456) at 1 nM for A3AdoR. Testing compounds are diluted with DMSO to make 8-point 4-fold serial dilution. Nonspecific binding (Low control: LC) and total binding (High control: HC) are determined in the presence or absence of saturated cold ligand. Specific binding is calculated by subtracting nonspecific binding from total binding. All assays are performed in a final volume of 200 μl containing 1 μl of the test compound in DMSO, 100 μl of membrane preparation, and 99 μl of the radioligand in assay buffer (A1AdoR: 25 mM HEPES pH 7.4, 5 mM MgCl2, 1 mM CaCl2), 100 mM NaCl; A2AAdoR: 50 mM Tris HCl pH 7.4, 10 mM MgCl2, 1 mM EDTA; A2BAdoR: 50 mM HEPES pH 7.0, 5 mM MgCl2, 1 mM EDTA; A3AdoR: 25 HEPES pH 7.4, 10 mM MgCl2, 1 mM CaCl2), 0.5% BSA). The incubation is performed at room temperature with shaking at 300 rpm for 1 hour for A1AdoR, A2BAdoR and A3AdoR and 2 hours for A2AAdoR. After the incubation, the assay mixture is filtered through 96 GF/C filter plates (Perkin Elmer #6005174) using Perkin Elmer Filtermate Harvester, and then washed four times with ice-cold washing buffer (A1AdoR: 25 mM HEPES pH 7.4, 5 mM MgCl2, 1 mM CaCl2), 100 mM NaCl; A2AAdoR: 50 mM Tris HCl pH 7.4, 154 mM NaCl; A2BAdoR: 50 mM HEPES pH 6.5, 5 mM MgCl2, 1 mM EDTA, 0.2% BSA; A3AdoR: 50 mM Tris HCl pH 7.4). The filters are dried for 1 hour at 50° C. and [^3H] trapped on filter counted for radioactivity in Perkin Elmer Microscint 20 cocktail (#6013329) using Perkin Elmer MicroBeta2 Reader. The results are expressed as a percent inhibition of the control radioligand specific binding calculated using the following equation: % Inhibition=(1−(Assay well-Average_LC)/(Average_HC−Average_LC))×100%. Data are analyzed and IC50 is calculated using GraphPad Prism 5 and the model “log(inhibitor) vs. response—Variable slope”. The binding affinity of the compounds is determined by using the Cheng and Prusoff equation Ki=IC50/(1+[radioligand]/Kd).

T1 sequence (P29274 whole entry): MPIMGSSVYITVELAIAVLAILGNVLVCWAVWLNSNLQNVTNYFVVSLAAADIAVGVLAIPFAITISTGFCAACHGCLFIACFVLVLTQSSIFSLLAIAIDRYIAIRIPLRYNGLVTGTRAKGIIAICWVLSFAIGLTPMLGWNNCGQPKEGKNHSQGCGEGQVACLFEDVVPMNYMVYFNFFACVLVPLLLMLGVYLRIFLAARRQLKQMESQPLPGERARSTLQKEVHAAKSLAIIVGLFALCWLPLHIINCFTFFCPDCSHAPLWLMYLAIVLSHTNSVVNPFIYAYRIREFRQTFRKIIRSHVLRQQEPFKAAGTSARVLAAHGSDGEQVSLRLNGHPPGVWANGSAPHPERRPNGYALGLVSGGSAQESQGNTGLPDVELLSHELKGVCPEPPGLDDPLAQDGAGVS

IC50 (human A2A AdoR) [nM]	EC50 (phospho-CREB (pCREB)) [nM]	A2B/A2A Selectivity (human A2B AdoR)	Compound	A1/A2A Selectivity (A1AdoR)
≤ 20	> 100	a (greater than 1000)	CC#Cc1nc2c3cc(C#N)n(CCN4CCN(c5ccc(OCCOC)cc5)CC4)c3nc(N)n2n1	a (greater than 1000)
≤ 20	20 to 100	a (greater than 1000)	Cc1noc2cc(F)c(N3CCN(CCn4c(C#N)c(Cl)c5c4nc(N)n4nc(-c6ccccn6)nc54)CC3)cc12	a (greater than 1000)
≤ 20	> 100	a (greater than 1000)	Nc1nc2c(cc(C(=O)O)n2CCN2CCN(c3cc(-c4ncco4)ccc3F)CC2)c2nc(-c3ccccn3)nn12 [5-amino-7-(2-(4-(2-fluoro-5-(oxazol-2-yl)phenyl)piperazin-1-yl)ethyl)-2-(pyridin-2-yl)-7H-pyrrolo[3,2-e][1,2,4]triazolo[1,5-c]pyrimidine-8-carboxylic acid]	b (greater than 100 but less than or equal to 1000)
≤ 20	≤ 20	a (greater than 1000)	Cc1noc2cc(F)c(N3CCN(CCn4c(C(N)=O)c(Cl)c5c4nc(N)n4nc(-c6ccccn6)nc54)CC3)cc12 [5-amino-9-chloro-7-[2-[4-(6-fluoro-3-methyl-1,2-benzoxazol-5-yl)piperazin-1-yl]ethyl]-2-(2-pyridyl)-[1,2,4]triazolo[1,5-c]pyrrolo[3,2-e]pyrimidine-8-carboxamide]	a (greater than 1000)
≤ 20	> 100	a (greater than 1000)	Cc1noc2cc(F)c(N3CCN(CCn4c(C#N)cc5c4nc(N)n4nc(-c6ccccn6)nc54)CC3)cc12	c (greater than 0 but less than or equal to 100)
≤ 20	≤ 20	a (greater than 1000)	Cc1noc2cc(F)c(N3CCN(CCn4nc(Cl)c5c4nc(N)n4nc(-c6ccccn6)nc54)CC3)cc12	b (greater than 100 but less than or equal to 1000)

Further lines, the compound ahead of its results:

Compound	IC50 (human A2A AdoR) [nM]	EC50 (phospho-CREB (pCREB)) [nM]	A2B/A2A Selectivity (human A2B AdoR)	A1/A2A Selectivity (A1AdoR)
NC(=O)c1cc2c(nc(N)n3nc(-c4ccccn4)nc23)n1CCN1CCN(c2cc(-c3ncco3)ccc2F)CC1	≤ 20	20 to 100	a (greater than 1000)	b (greater than 100 but less than or equal to 1000)
COCCOc1ccc(N2CCN(CCn3c(C#N)cc4c3nc(N)n3nc(-c5ccccn5)nc43)CC2)cc1	≤ 20	> 100	a (greater than 1000)	b (greater than 100 but less than or equal to 1000)
Cc1c(C(=O)O)n(CCN2CCN(c3cc(-c4ncco4)ccc3F)CC2)c2nc(N)n3nc(-c4ccccn4)nc3c12	≤ 20	≤ 20	a (greater than 1000)	a (greater than 1000)
CC#Cc1nc2c3cc(C#N)n(CCN4CCN(c5cc(-c6ncco6)ccc5F)CC4)c3nc(N)n2n1	≤ 20	> 100	a (greater than 1000)	a (greater than 1000)
N#Cc1cc2c(nc(N)n3nc(-c4ccccn4)nc23)n1CCN1CCN(c2cc(-c3ncco3)ccc2F)CC1	≤ 20	> 100	a (greater than 1000)	a (greater than 1000)
Nc1nc2c(c(Cl)nn2CCN2CCN(c3cc(-c4ncco4)ccc3F)CC2)c2nc(-c3ccccn3)nn12	≤ 20	20 to 100	a (greater than 1000)	c (greater than 0 but less than or equal to 100)
COCCOc1ccc(N2CCN(CCn3c(C(N)=O)cc4c3nc(N)n3nc(-c5ccccn5)nc43)CC2)cc1	≤ 20	> 100	a (greater than 1000)	c (greater than 0 but less than or equal to 100)
Cc1c(C(=O)NC2CC2)n(CCN2CCN(c3cc(-c4ncco4)ccc3F)CC2)c2nc(N)n3nc(-c4ccccn4)nc3c12	≤ 20	> 100	a (greater than 1000)	a (greater than 1000)
